Values quoted from earlier work as cited in US20260284070A1, “Ophthalmic Solution of Brinzolamide” (Micro Labs Limited, priority 2023, published 2026).

Conditions: physiological pH (pH 6.0 to 7.5)

SMILES: CCN[C@H]1CN(CCCOC)S(=O)(=O)c2sc(S(N)(=O)=O)cc21 [Brinzolamide, (R)-(+)-4-Ethylamino-2-(3-methoxypropyl)-3,4-dihydro-2H-thieno[3,2-e]-1,2-thiazine-6-sulfonamide-1,1-dioxide]
- Solubility: very limited solubility
